Assay results published in patent publication EP0683787B1, “4'-O-SULFONYL-ANTHRACYCLINE DERIVATIVES” (PHARMACIA & UPJOHN S.p.A., priority 1993, dated 1995).
Values after ≈ are worked out from the molar mass of the structure shown.

Legend:
[1] = tested on: LoVo (colon adenocarcinoma); assay: Colony assay, cytotoxic activity on LoVo cells; assay type: cell-based; settings: Homo sapiens, Colony assay: 4 h treatment, concentration inhibiting 50% colony formation
Description: (§1) The cytotoxic activity is reported as IC50, the concentration inhibiting 50% of colony formation, calculated on concentration response curves. Resistance index R.I. is the ratio between the IC50 on resistant cells and the IC50 on sensitive cells.

[2] = tested on: LoVo/DX (colon adenocarcinoma resistant to doxorubicin); assay: Colony assay, cytotoxic activity on LoVo/DX cells; assay type: cell-based, human; settings: for IC50: Homo sapiens, LoVo/DX, Colony assay: 4 h treatment, concentration inhibiting 50% colony formation; for R.I. (Resistance Index): (IC50 Lovo/DX)/(IC50 LoVo)
Description: as §1

[3] = tested on: P388 murine leukaemia resistant to doxorubicin; assay: Antitumor activity in vivo on P388/DX leukaemia; parameters: species or system BD2F1 mice; settings: for O.D. (Optimal Dose): injected i.v. one day after tumor transplantation, 10^5 cell/mouse transplanted i.v.; for T/C: Median survival time of treated mice/Median survival time of controls x 100, at Optimal Dose, i.v. one day after tumor transplantation

Compound | IC50 [1] [µg/mL] | IC50 [2] [µg/mL] | O.D. (Optimal Dose) [3] [mg/kg] | R.I. (Resistance Index) [2] | T/C [3] [%]
COc1cccc2c1C(=O)c1c(O)c3c(c(O)c1C2=O)C[C@@](O)(C(=O)CO)C[C@@H]3O[C@H]1C[C@H](N)[C@H](O)[C@H](C)O1 [doxorubicin, reference compound] | 0.049 (≈ 0.0902 µM) | 2.55 (≈ 4.7 µM) | 16.9 |  | 
CC(=O)[C@]1(O)Cc2c(O)c3c(c(O)c2[C@@H](O[C@H]2C[C@H](N)[C@H](OS(C)(=O)=O)[C@H](C)O2)C1)C(=O)c1ccccc1C3=O [Compound 1b, 4-demethoxy-4'-O-methansulfonyldaunorubicin] | 0.0105 (≈ 0.0182 µM) | 0.0605 (≈ 0.105 µM) | 8.1 | 5.8 | 133
COc1cccc2c1C(=O)c1c(O)c3c(c(O)c1C2=O)C[C@@](O)(C(=O)CO)C[C@@H]3O[C@H]1C[C@H](N)[C@H](OS(C)(=O)=O)[C@H](C)O1 [Compound 2a, 4'-O-methansulfonyldoxorubicin] | 0.0173 (≈ 0.0278 µM) | 1.8 (≈ 2.9 µM) | 40.0 | 104.0 | 137
